The source of these data is publication PMC5118696, “Identification of inhibitors that dually target the new permeability pathway and dihydroorotate dehydrogenase in the blood stage of Plasmodium falciparum” (Scientific Reports, 2016).

Experiment [1] concerns Hyp1-NLuc Plasmodium falciparum-infected erythrocytes (new permeability pathway, NPP). Kind of experiment: microbe, parasite or virus in culture. Particulars: Erythrocyte, 0.33 h, read-out: Mean RLU at 28 min (As % of DMSO control).
Experiment [2] shares this test system. The experiment is described as follows: microbe, parasite or virus in culture. Particulars: Erythrocyte, 0.33 h, read-out: % of control remaining.

Where two headings read alike, the source gives them in different places.

`COc1ccc(-c2c(C)nn3c(N)c(C#N)cnc23)cc1OC` [MMV396797]: the activity at 2 µM was determined as 104% in experiment [1] and 89.6% in experiment [2].

In the case of `Cc1cccc(-n2ncc3c(=O)[nH]c(-n4nc(C)cc4NC(=O)c4cc5ccccc5o4)nc32)c1` [MMV403679], the activity at 2 µM in experiment [1] and in experiment [2] was 109% each time.

With `CCOC(=O)c1cnc2c(CC)cccc2c1O` [MMV498479], the figures for the activity at 2 µM in experiment [1] and in experiment [2] were 103% and 107%, respectively.

Regarding `Nc1ccn(C2O[C@H](CO)[C@@H](O)[C@H]2O)c(=O)n1` (stereo partly drawn) [MMV638723], the activity at 2 µM in experiment [1] is 86.2%; in experiment [2] it was 88.6%.

With `O=C1C2=C(Nc3ccccc3SC2c2ccccc2)c2ccccc21` (stereo not drawn) [MMV645672], the activity at 2 µM in experiment [1] and in experiment [2] was 106% in each case.

As for `CCN(CC)CCCNc1ccnc2cc3ccccc3cc12` [MMV665783], the activity at 2 µM in experiment [1] worked out at 101%; in experiment [2], 106%.

As for `CC(C)(C)c1ccc(O)c(CNC2CCCCC2)c1` [MMV665785], the activity at 2 µM in experiment [1] is 103%; in experiment [2], 104%.

`O=c1cc(NC2CCN(CCCc3ccccc3)CC2)c2cc(Cl)ccc2o1` [MMV665786]: the activity at 2 µM in experiment [1] is 96.5%; in experiment [2] it was 89.1%.

With `CC(NCc1ccccc1)c1cc(Cl)ccc1O` (stereo not drawn) [MMV665789], the activity at 2 µM in experiment [1] turned out to be 107%; in experiment [2] it was 117%.

For the molecule `FC(F)(F)c1cccc(Nc2nc3ccccc3nc2Nc2cccc(C(F)(F)F)c2)c1` [MMV665794], the activity at 2 µM amounted to 103% in experiment [1] and 109% in experiment [2].

On to `CCOc1cc(Br)c(C(C)NC(=O)c2cccc(OC)c2)cc1OCC` (stereo not drawn) [MMV665796], for which the activity at 2 µM in experiment [1] came to 106%; in experiment [2], 115%.

As to `CCCCOC(=O)c1ccc(Nc2cc(C)nc3ccc(OC)cc23)cc1` [MMV665797], the activity at 2 µM in experiment [1] was 104%; in experiment [2], 107%.

Regarding `FC(F)(F)c1cccc(Nc2nc(-c3ccccc3)nc3ncccc23)c1` [MMV665798], the activity at 2 µM in experiment [1] was found to be 103%; in experiment [2] it was 117%.

Regarding `COc1ccc(C(=O)Nc2ccc(Cl)cc2C(=O)Nc2ccncc2)cc1` [MMV665799], the activity at 2 µM in experiment [1] worked out at 100%; in experiment [2], 111%.

Consider `CCOc1cc(Cl)c(C(C)NC(=O)c2ccccc2)cc1OCC` (stereo not drawn) [MMV665800], for which the activity at 2 µM in experiment [1] stood at 100%; in experiment [2], 111%.

With `CCOc1cc(Cl)c(C(C)NC(=O)c2cccc(OC)c2)cc1OCC` (stereo not drawn) [MMV665803], the activity at 2 µM came out at 113% in experiment [1] and 124% in experiment [2].

As for `CCOc1ccc(-c2nonc2NC(=O)c2cccc(C)c2)cc1OCC` [MMV665805], the figures for the activity at 2 µM in experiment [1] and in experiment [2] were 106% and 107%, respectively.

Take `Cc1c(C)n(CC(O)CNC2CCCCC2C)c2ccccc12` (stereo not drawn) [MMV665806]: the activity at 2 µM was 106% in experiment [1] and 108% in experiment [2].

As to `O=C(Nc1cccc(C(F)(F)F)c1)c1cc(Cl)ccc1O` [MMV665807], the activity at 2 µM came out at 99% in experiment [1] and 105% in experiment [2].

As for `Oc1ccc(Br)cc1CN1CCN(Cc2ccc(Cl)cc2)CC1` [MMV665809], the results for the activity at 2 µM in experiment [1] and in experiment [2] were 93.3% and 91.7%, respectively.

In the case of `O=C(Nc1cccc(C2=NCCN2)c1)Nc1cccc(C2=NCCN2)c1` [MMV665810], the activity at 2 µM in experiment [1] is 85.8%; in experiment [2], 84.4%.

As to `CCc1ccc(CNCC(O)c2ccccc2)cc1` (stereo not drawn) [MMV665812], the activity at 2 µM in experiment [1] came to 95.4%; in experiment [2] it was 96.2%.

On to `CCOC(=O)c1cnc2ccc(OC)cc2c1NCc1ccccc1` [MMV665813], for which the figures for the activity at 2 µM in experiment [1] and in experiment [2] were 115% and 114%, respectively.

For the molecule `Oc1c(C(Nc2ccccn2)c2cccc(Oc3ccccc3)c2)ccc2cccnc12` (stereo not drawn) [MMV665814], the values for the activity at 2 µM in experiment [1] and in experiment [2] were 98.8% and 98.6%, respectively.

Regarding `CC(C)(C)CC(C)(C)NCC(O)COc1ccc2c(c1)CCC2` (stereo not drawn) [MMV665817], the activity at 2 µM in experiment [1] is 106%; in experiment [2], 120%.

On to `COc1ccc2c(=O)cc(C(Cl)(Cl)Cl)oc2c1` [MMV665820], for which the activity at 2 µM in experiment [1] was 105%; in experiment [2] it was 102%.

`COc1cccc(NC(=O)Cn2c(C)c(C#N)c3ccccc32)c1` [MMV665826]: the activity at 2 µM in experiment [1] worked out at 101%; in experiment [2], 109%.

Take `CCOC(=O)c1cn(CC)c2cc(N3CCCCC3)c(F)cc2c1=O` [MMV665827]: the activity at 2 µM in experiment [1] came out at 104%; in experiment [2], 100%.

Take `CC1CC2=C(CC1CNCCCN(C)C)C(C)(C)CCC2` (stereo not drawn) [MMV665830]: the activity at 2 µM in experiment [1] worked out at 105%; in experiment [2], 104%.

For `CCOC(=O)c1c(NC(=O)c2ccccc2)sc2c(O)c(CN(CC)CC)ccc12` [MMV665831], the activity at 2 µM in experiment [1] and in experiment [2] was 103% throughout.

As to `COc1ccc(C=C2SC(Nc3ccccc3)=NC2=O)cc1` [MMV665836], the activity at 2 µM in experiment [1] stood at 86.5%; in experiment [2], 55.9%.

Take `O=C(Nc1ccc(-c2nc3ccccc3[nH]2)cc1)c1ccc(Cl)c(Cl)c1` [MMV665840]: the activity at 2 µM in experiment [1] was 109%; in experiment [2], 107%.

Take `CCCc1cc(O)c2c3c(c(=O)oc2c1)CN(C)CC3` [MMV665841]: the activity at 2 µM came to 107% in experiment [1] and 103% in experiment [2].

As for `Oc1c2c(nc3ccccc13)CCCC2` [MMV665843], the activity at 2 µM came out at 109% in experiment [1] and 111% in experiment [2].

On to `Oc1ccc(Cl)cc1CNc1nc2ccccc2[nH]1` [MMV665850], for which the figures for the activity at 2 µM in experiment [1] and in experiment [2] were 105% and 110%, respectively.

For `O=C(Nc1ccc(Cl)c(Cl)c1)Nc1ccc(Cl)c(Cl)c1` [MMV665852], the activity at 2 µM is 117% in experiment [1] and 125% in experiment [2].

As for `CCOc1c(Cl)cc(CNC(C)C(O)c2ccccc2)cc1OC` (stereo not drawn) [MMV665857], the activity at 2 µM amounted to 100% in experiment [1] and 108% in experiment [2].

Take `CCCCNc1nc(NC(C)(C)C)nc(NC(C)(C)C)n1` [MMV665864]: the activity at 2 µM in experiment [1] turned out to be 119%; in experiment [2], 130%.

Take `Cc1cc(Nc2ccc(C)c(Cl)c2)n2nc(C(F)(F)F)nc2n1` [MMV665874]: the activity at 2 µM in experiment [1] is 107%; in experiment [2] it was 106%.

Consider `Cn1c(=O)n(C)c2cc(CNCCNc3ccnc4cc(Cl)ccc34)ccc21` [MMV665875], for which the activity at 2 µM in experiment [1] was 95.9%; in experiment [2], 88.8%.

In the case of `CCC(c1ccccc1)c1nn2c(-c3cccs3)nnc2s1` (stereo not drawn) [MMV665876], the results for the activity at 2 µM in experiment [1] and in experiment [2] were 85.7% and 40.7%, respectively.

With `COc1cccc(NC(=O)[C@H](C(C)C)n2c(=O)[nH]c3ccccc3c2=O)c1` [MMV665878], the activity at 2 µM stood at 102% in experiment [1] and 101% in experiment [2].

With `CC(C)(C)C(=O)Nc1ccc(C(=O)Nc2cccc(-c3nc4ccccc4[nH]3)c2)cc1` [MMV665879], the activity at 2 µM in experiment [1] was 103%; in experiment [2], 114%.

In the case of `COc1ccc(CNC(=O)c2cc3c(=O)n4ccccc4nc3n(CCc3ccccc3)c2=N)cc1` [MMV665881], the activity at 2 µM in experiment [1] was 104%; in experiment [2] it was 98%.

As to `OC(CNC1CCCCC1)Cn1c2ccc(I)cc2c2cc(I)ccc21` (stereo not drawn) [MMV665882], the activity at 2 µM in experiment [1] is 103%; in experiment [2], 93.7%.

As to `O=C(Nc1cccc(-c2nc3ccccc3[nH]2)c1)c1cccc(NC(=O)c2ccco2)c1` [MMV665883], the activity at 2 µM is 107% in experiment [1] and 102% in experiment [2].

Consider `CC(Oc1ccc(NC(=O)c2cccs2)cc1)C(=O)c1ccc(Cl)cc1` (stereo not drawn) [MMV665886], for which the activity at 2 µM worked out at 86.9% in experiment [1] and 84.1% in experiment [2].

Take `O=C(Nc1ccccc1O)c1ccc(Oc2cccc(C(=O)Nc3ccccc3O)c2)cc1` [MMV665888]: the activity at 2 µM came out at 102% in experiment [1] and 104% in experiment [2].

As to `COc1ccc(-c2nonc2NC(=O)c2cccc(C)c2)cc1OC` [MMV665890], the figures for the activity at 2 µM in experiment [1] and in experiment [2] were 104% and 113%, respectively.

On to `c1ccc(-c2ccc(-c3nc4ccccc4[nH]3)cc2)cc1` [MMV665891], for which the activity at 2 µM in experiment [1] was found to be 109%; in experiment [2], 122%.

As for `CC(=O)c1sc(NC(=O)Nc2ccc(C)cc2C)nc1C` [MMV665894], the activity at 2 µM in experiment [1] turned out to be 99.8%; in experiment [2], 93%.

Take `COc1ccc2nc(N)nc(C)c2c1` [MMV665897]: the activity at 2 µM stood at 103% in experiment [1] and 93.5% in experiment [2].

On to `COc1cc(C(=O)Nc2ccc(-c3nc4ccccc4[nH]3)cc2)cc(OC)c1OC` [MMV665898], for which the activity at 2 µM in experiment [1] is 108%; in experiment [2], 103%.

As to `O=C(c1ccccc1F)N(Cc1ccc(Cl)cc1)c1ccccn1` [MMV665899], the values for the activity at 2 µM in experiment [1] and in experiment [2] were 102% and 106%, respectively.

In the case of `O=C(Nc1ccc(CN2CCOCC2)cc1)c1ccc(-c2ccc(Br)cc2)o1` [MMV665901], the activity at 2 µM in experiment [1] was 99.8%; in experiment [2], 105%.

Consider `N=c1n(CCN2CCCCC2)c2ccccc2n1CC(O)c1cccc(Br)c1` (stereo not drawn) [MMV665902], for which the activity at 2 µM amounted to 101% in experiment [1] and 115% in experiment [2].

As for `COCCn1c(C)nc2ccccc2c1=O` [MMV665904], the activity at 2 µM stood at 110% in experiment [1] and 112% in experiment [2].

For the molecule `Cc1ccc(-c2cc(C(=O)Nc3ccc(S(=O)(=O)N4CCCCC4)cc3)[nH]n2)c(O)c1` [MMV665906], the activity at 2 µM in experiment [1] is 100%; in experiment [2] it was 105%.

Turning to `COc1ccc(N2CCN(C(CNC(=O)CC(C)(C)C)c3ccc4c(c3)OCO4)CC2)cc1` (stereo not drawn) [MMV665908], the activity at 2 µM in experiment [1] was 92.5%; in experiment [2], 97.1%.

In the case of `O=C(Nc1nc(-c2ccccn2)cs1)c1ccccc1Br` [MMV665909], the results for the activity at 2 µM in experiment [1] and in experiment [2] were 95.5% and 103%, respectively.
